Read-outs that look alike come from different tables or passages of the source.
How the values were obtained:
[1] = test system: non-small-cell lung cancer cells H1299
[2] = test system: hepatitis B virus transfected hepatoma cell lines, HepG 2.2.15 cells; test: Cytotoxicity assay, 2.2.15 cells; format: cell-based, human; details: 48 h of drug exposure
human hepatoma G2 cells = test: Cytotoxicity assay (XTT colorimetric), Hep G2; format: cell-based; details: 48 h of drug exposure
[3] = test system: transcriptional activity of hTERT; test: SEAP reporter assay of hTERT expression, PhTERT-SEAP (hTERT-BJ1); format: cell-based, human; details: hTERT-BJ1
Outline: (§1)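 Drug exposure: varying amounts, 24 h, following 24 h culture at 37° C and fresh medium. Media heat-inactivated (65° C, 10 min) to remove endogenous phosphatases, then combined 1:1 with diethanolamine/MgCl2/homoarginine buffer and 12 mM p-nitrophenyl phosphate; A405 slope recorded.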

[4] = test system: transcriptional activity of hTERT; test: SEAP reporter assay of hTERT expression, PhTERT-SEAP (H1299); format: cell-based, human; details: hTERT-H1299
Outline: as §1

rat glioma C6 cells = test: Cytotoxicity assay (XTT colorimetric), C6 cells; format: cell-based; details: 48 h of drug exposure

Q: How did the “Relative MTT viability (%)” value ([1]; 2.4 µM) turn out when `O=C1c2cccc(NCCNCCO)c2C(=O)c2cccc(NCCNCCO)c21` [IVe, 1,5-Bis[2-(2-Aminoethylamino)ethanol]anthraquinone] was run?
A: 97 ± 8.7%

Q: What about the “Relative MTT viability (%)” value ([1]; 24 µM) of the same molecule?
A: 37 ± 3.9%

Q: And the “Relative MTT viability (%)” value ([1]; 242 µM)?
A: 11 ± 4.1%

Q: What about the IC50 [2] of the same molecule?
A: 8.35 µM

Q: What about the IC50 (human hepatoma G2 cells) of the same molecule?
A: 1.2 ± 0.02 µM

Q: What about the “Relative SEAP activity (%)” value ([3]; 2.4 μM) of the same molecule?
A: 60 ± 11.6%

Q: And the “Relative SEAP activity (%)” value ([3]; 24 μM)?
A: 40 ± 17.3%

Q: And the “Relative SEAP activity (%)” value ([3]; 242 μM)?
A: 52 ± 19.1%

Q: And the “Relative MTT viability (%)” value (hTERT-BJ1 cells; 2.4 µM)?
A: 84 ± 19.8%

Q: What about the “Relative MTT viability (%)” value (hTERT-BJ1 cells; 24 µM) of the same molecule?
A: 60 ± 11.2%

Q: What about the “Relative MTT viability (%)” value (hTERT-BJ1 cells; 242 µM) of the same molecule?
A: 44 ± 12.9%

Q: And the “Relative SEAP activity (%)” value ([4]; 2.4 μM)?
A: 87 ± 3.8%

Q: And the “Relative SEAP activity (%)” value ([4]; 24 μM)?
A: 43 ± 5.5%

Q: What about the “Relative SEAP activity (%)” value ([4]; 242 μM) of the same molecule?
A: 40 ± 6.7%

Q: And the IC50 (rat glioma C6 cells)?
A: 1.17 µM

Q: For `O=C1c2cccc(NCCCO)c2C(=O)c2cccc(NCCCO)c21` [IVh, 1,5-Bis(propanolamino)anthraquinone], which “Relative MTT viability (%)” value ([1]; 2.8 µM) is on record?
A: 107 ± 5.0%

Q: What about the “Relative MTT viability (%)” value ([1]; 28 µM) of the same molecule?
A: 49 ± 3.5%

Q: And the “Relative MTT viability (%)” value ([1]; 282 µM)?
A: 40 ± 10.4%

Q: And the IC50 [2]?
A: > 20 µM

Q: And the IC50 (human hepatoma G2 cells)?
A: > 20 µM

Q: What about the “Relative SEAP activity (%)” value ([3]; 2.8 μM) of the same molecule?
A: 41 ± 12.5%

Q: What about the “Relative SEAP activity (%)” value ([3]; 28 μM) of the same molecule?
A: 0 ± 22.1%

Q: What about the “Relative SEAP activity (%)” value ([3]; 282 μM) of the same molecule?
A: (−3) ± 10.0^ %

Q: And the “Relative MTT viability (%)” value (hTERT-BJ1 cells; 2.8 µM)?
A: 72 ± 7.4%

Q: And the “Relative MTT viability (%)” value (hTERT-BJ1 cells; 28 µM)?
A: 39 ± 10.5%

Q: What about the “Relative MTT viability (%)” value (hTERT-BJ1 cells; 282 µM) of the same molecule?
A: 26 ± 15.9%

Q: What about the “Relative SEAP activity (%)” value ([4]; 2.8 μM) of the same molecule?
A: 88 ± 4.9%

Q: What about the “Relative SEAP activity (%)” value ([4]; 28 μM) of the same molecule?
A: 69 ± 5.4%

Q: What about the “Relative SEAP activity (%)” value ([4]; 282 μM) of the same molecule?
A: 33 ± 2.2%

Q: And the IC50 (rat glioma C6 cells)?
A: > 20 µM

Q: Which results are given for `O=C1c2cccc(NCCCCO)c2C(=O)c2cccc(NCCCCO)c21` [IVk, 1,5-Bis(butanolamino-)-anthraquinone]?
A: Relative MTT viability (%) ([1]; 2.6 µM): 114 ± 8.1%; Relative MTT viability (%) ([1]; 26 µM): 110 ± 7.1%; Relative MTT viability (%) ([1]; 265 µM): 16 ± 3.4%; IC50 [2]: 10.3 ± 0.24 µM; IC50 (human hepatoma G2 cells): > 20 µM; Relative SEAP activity (%) ([3]; 2.6 μM): 114 ± 20.5%; Relative SEAP activity (%) ([3]; 26 μM): 113 ± 21.6%; Relative SEAP activity (%) ([3]; 265 μM): 127 ± 19.9%; Relative MTT viability (%) (hTERT-BJ1 cells; 2.6 µM): 101 ± 10.5%; Relative MTT viability (%) (hTERT-BJ1 cells; 26 µM): 101 ± 8.8%; Relative MTT viability (%) (hTERT-BJ1 cells; 265 µM): 91 ± 11.8%; Relative SEAP activity (%) ([4]; 2.6 μM): 89 ± 4.9%; Relative SEAP activity (%) ([4]; 26 μM): 71 ± 9.8%; Relative SEAP activity (%) ([4]; 265 μM): 27 ± 2.0%; IC50 (rat glioma C6 cells): > 20 µM
